Measurements as given in article PMC8632988, “Inhibition of SYK and cSrc kinases can protect bone and cartilage in preclinical models of osteoarthritis and rheumatoid arthritis” (Scientific Reports, 2021).

What was measured:
CAMK1a = target: T1, CAMK1a (Homo sapiens, UniProt Q14012); experiment: Kinase selectivity profile assay; type: biochemical; details: 500 nM; relative to DMSO; read-out: Residual enzymatic activity
T1 construct: purchased Reaction Biology Corporation
From the text: (§1) Kinase activity data was expressed as the percent remaining kinase activity in test samples compared to vehicle (dimethyl sulfoxide) reactions based on the radioactivity of reaction products (see Table S2). Experiment was replicated twice.

PAK2 = target: T2, PAK2 (Homo sapiens, UniProt Q13177); experiment: Kinase selectivity profile assay; type: biochemical; details: 500 nM; relative to DMSO; read-out: Residual enzymatic activity
T2 construct: purchased Reaction Biology Corporation
T2 sequence (Q13177 whole entry): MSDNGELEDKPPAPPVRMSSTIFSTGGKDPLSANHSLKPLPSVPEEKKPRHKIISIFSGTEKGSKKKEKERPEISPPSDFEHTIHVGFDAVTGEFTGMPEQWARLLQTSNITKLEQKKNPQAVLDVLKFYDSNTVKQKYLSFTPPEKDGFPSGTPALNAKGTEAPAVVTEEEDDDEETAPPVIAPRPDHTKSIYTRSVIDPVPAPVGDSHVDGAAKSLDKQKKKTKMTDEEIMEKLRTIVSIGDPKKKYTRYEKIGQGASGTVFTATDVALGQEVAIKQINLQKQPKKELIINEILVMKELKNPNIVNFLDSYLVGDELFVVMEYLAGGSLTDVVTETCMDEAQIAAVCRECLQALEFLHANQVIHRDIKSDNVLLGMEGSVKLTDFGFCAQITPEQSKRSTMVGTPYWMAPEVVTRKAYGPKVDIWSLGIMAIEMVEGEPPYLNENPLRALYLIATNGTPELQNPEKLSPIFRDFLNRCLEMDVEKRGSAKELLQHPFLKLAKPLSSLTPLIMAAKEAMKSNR
From the text: as §1

[1] = system: SYK-mediated signaling in human B-cell lymphoma cells; experiment: Detection of SYK activity in cells by Western blot; type: cell-based; details: 1, 3, 10 uM
Experimental: Western blot was performed at A. N. Bakh Institute of Biochemistry, Russia. Human B-cell lymphoma cells obtained from Russian collection cell cultures (RCCC) were cultured in 5% CO2 humidified atmosphere at 37 °C in RPMI 1640 supplemented with 100 U mL^–1 penicillin/streptomycin and 10% heat inactivated FBS. P3H3 cells (10^6 cells in 1 ml of RPMI media with 5% FBS) were incubated with test compound or vehicle control (DMSO, 1%) for one hour at 37 °C in a 5% CO2-incubator. Then anti-IgM (1 μg/mL) was added to activate B-cell receptors and incubation continued for additional 15 min. After that the cells were washed with cooled PBS buffer and were lysed in 200 μL of ice-cold lysis buffer (62,5 mM Tris–HCl, pH 6.8, 2% w/v SDS, 10% glycerin, 50 mM DTT, 0,01% w/v BPB). Then lysates were sonicated for 20 s in ice, heated to 95–100 °C for 5 min and centrifuged for 5 min. 20 μL of obtained samples were electrophoresed on 10% SDS–polyacrylamide gel (gel blocks: 90 × 60 × 1.5 mm; current intensity: 30 mA, time: 2.5–3 h) and transferred to nitrocellulose membranes (BioRad). Western blotting was carried out according to the Amersham Pharmacia Biotech ECL Western blotting protocol. […]

[2] = system: Wistar rats, MIA osteoarthritis model; experiment: Monosodium iodoacetate induced osteoarthritis in rats; type: in vivo, rat
Experimental: Monosodium iodoacetate (MIA) osteoarthritis model was performed at Pharmenterprises, Russia according to the known procedure[32] and approved by Ethics Committee of Pharmenterprises. Male 10 week old Wistar rats were divided into eight groups: negative control (#1), positive control (#2) and six treatment groups (#3–8), ten rats in each group. Group #1 was left intact while rats in groups #2–8 were anesthetized on the day 0 with intraperitoneal injection of Zoletil and Xylazine mixture and given a single intra-articular injection of MIA through the infrapatellar ligament of the right knee. Rats were treated as follows: (#1, #2) 0.5% solution of methylcellulose in PBS (pH = 3) as vehicle control, (#3, #5) 100 mg/kg MT-SYK-03, (#4, #6) 500 mg/kg MT-SYK-03, (#7) 50 mg/kg nalgesin and (#8) 0.1 mg/kg zoledronic acid. Rats in groups #1–4 received treatment intragastrically QD, 25 and 1 h before the MIA injection, and then daily until the end of the study on the day 28. Rats in groups #5–6 received treatment intragastrically QD from the day 7 until the end of the study. Rats in group #7 were treated QD starting on the day 14 and until the end of the study. Finally, rats in group #8 were treated subcutaneously immediately after the MIA injection and then every third day until the study end. Disease progression was monitored by measuring mechanical hyperalgesia, mechanical allodynia and grip strength of hind paws on the days 14, 21, and 28, just before the treatment, and 1, 3, 6 h after it.

[3] = MT-SYK-03 100 mg/kg, 7–28 days QD, 14 day, 1 hour after admin.
[4] = MT-SYK-03 100 mg/kg, 7–28 days QD, 14 day, 3 hours after admin.
[5] = MT-SYK-03 100 mg/kg, 7–28 days QD, 21 day, 1 hour after admin.
[6] = MT-SYK-03 100 mg/kg, 7–28 days QD, 21 day, 3 hours after admin.
[7] = MT-SYK-03 100 mg/kg, 7–28 days QD, 28 day, 1 hour after admin.
[8] = MT-SYK-03 100 mg/kg, 7–28 days QD, 28 day, 3 hours after admin.
[9] = MT-SYK-03 100 mg/kg, −1–28 days QD, 14 day, 1 hour after admin.
[10] = MT-SYK-03 100 mg/kg, −1–28 days QD, 14 day, 3 hours after admin.
[11] = MT-SYK-03 100 mg/kg, −1–28 days QD, 21 day, 1 hour after admin.
[12] = MT-SYK-03 100 mg/kg, −1–28 days QD, 21 day, 3 hours after admin.
[13] = MT-SYK-03 100 mg/kg, −1–28 days QD, 28 day, 1 hour after admin.
[14] = MT-SYK-03 100 mg/kg, −1–28 days QD, 28 day, 3 hours after admin.
[15] = MT-SYK-03 500 mg/kg, 7–28 days QD, 14 day, 1 hour after admin.
[16] = MT-SYK-03 500 mg/kg, 7–28 days QD, 14 day, 3 hours after admin.
[17] = MT-SYK-03 500 mg/kg, 7–28 days QD, 21 day, 1 hour after admin.
[18] = MT-SYK-03 500 mg/kg, 7–28 days QD, 21 day, 3 hours after admin.
[19] = MT-SYK-03 500 mg/kg, 7–28 days QD, 28 day, 1 hour after admin.
[20] = MT-SYK-03 500 mg/kg, 7–28 days QD, 28 day, 3 hours after admin.
[21] = MT-SYK-03 500 mg/kg, −1–28 days QD, 14 day, 1 hour after admin.
[22] = MT-SYK-03 500 mg/kg, −1–28 days QD, 14 day, 3 hours after admin.
[23] = MT-SYK-03 500 mg/kg, −1–28 days QD, 21 day, 1 hour after admin.
[24] = MT-SYK-03 500 mg/kg, −1–28 days QD, 21 day, 3 hours after admin.
[25] = MT-SYK-03 500 mg/kg, −1–28 days QD, 28 day, 1 hour after admin.
[26] = MT-SYK-03 500 mg/kg, −1–28 days QD, 28 day, 3 hours after admin.

T1 sequence (Q14012 whole entry): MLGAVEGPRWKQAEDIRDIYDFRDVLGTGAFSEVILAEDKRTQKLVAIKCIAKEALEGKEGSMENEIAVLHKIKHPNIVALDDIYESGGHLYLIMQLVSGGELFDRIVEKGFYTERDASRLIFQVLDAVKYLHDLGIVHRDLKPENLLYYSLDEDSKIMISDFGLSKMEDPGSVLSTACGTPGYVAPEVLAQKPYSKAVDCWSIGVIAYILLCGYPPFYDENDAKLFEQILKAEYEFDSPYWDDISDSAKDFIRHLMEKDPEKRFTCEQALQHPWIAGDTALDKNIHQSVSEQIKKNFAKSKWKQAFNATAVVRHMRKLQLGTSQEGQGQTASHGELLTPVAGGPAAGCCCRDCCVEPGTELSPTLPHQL

## COc1cc(Nc2ncnc(Nc3cc4c(cn3)NC(=O)C(C)(C)O4)n2)cc(OC)c1OC [MT-SYK-03]
CAMK1a
  remaining activity at 0.5 µM: 100%
PAK2
  remaining activity at 0.5 µM: 94.1%
[1]
  Anti-IgM induced autophosphorylation of SYK and phosphorylation of CD19, BTK, ERK1/2 and JNK1/2: dose-dependently inhibited
[2]; [3]
  hind paws grip strength: 70.1 ± 10.8 % from the initial one
  mechanical allodynia pain threshold: 70.2±7.7 % from the initial one
  mechanical hyperalgesia: 51.9 ± 4.1 & % from the initial one
[2]; [4]
  hind paws grip strength: 58.9 ± 7.8 & % from the initial one
  mechanical allodynia pain threshold: 78.7±10.6 % from the initial one
  mechanical hyperalgesia: 50.6 ± 5.6 & % from the initial one
[2]; [5]
  hind paws grip strength: 76.3 ± 6.2 & % from the initial one
  mechanical allodynia pain threshold: 75.3±15.4 % from the initial one
  mechanical hyperalgesia: 85.1 ± 5 % from the initial one
[2]; [6]
  hind paws grip strength: 62.56 ± 7.58 % from the initial one
  mechanical allodynia pain threshold: 73.1±7.9 % from the initial one
  mechanical hyperalgesia: 73.5 ± 6.9 & % from the initial one
[2]; [7]
  hind paws grip strength: 74.4 ± 13.0 % from the initial one
  mechanical allodynia pain threshold: 61.7±5.8 % from the initial one
  mechanical hyperalgesia: 67.7 ± 9.8 & % from the initial one
[2]; [8]
  hind paws grip strength: 58.1 ± 10.0 % from the initial one
  mechanical allodynia pain threshold: 78.3±8 % from the initial one
  mechanical hyperalgesia: 71.24 ± 7.99 % from the initial one
[2]; [9]
  hind paws grip strength: 56.3 ± 5.2 & % from the initial one
  mechanical allodynia pain threshold: 136.3±22.5 & % from the initial one
  mechanical hyperalgesia: 73.5 ± 10.5 & % from the initial one
[2]; [10]
  hind paws grip strength: 58.7 ± 8.2 & % from the initial one
  mechanical allodynia pain threshold: 136.7±29.2 & % from the initial one
  mechanical hyperalgesia: 63.9 ± 7.5 & % from the initial one
[2]; [11]
  hind paws grip strength: 76.5 ± 4.5 & % from the initial one
  mechanical allodynia pain threshold: 107.7±12.8 & % from the initial one
  mechanical hyperalgesia: 74.4 ± 3.3 &# % from the initial one
[2]; [12]
  hind paws grip strength: 72.69 ± 9.18 % from the initial one
  mechanical allodynia pain threshold: 95.5±4.7 & % from the initial one
  mechanical hyperalgesia: 80.5 ± 10.3 % from the initial one
[2]; [13]
  hind paws grip strength: 90.5 ± 14.0 % from the initial one
  mechanical allodynia pain threshold: 135.8±27.6 & % from the initial one
  mechanical hyperalgesia: 65.1 ± 7.4 & % from the initial one
[2]; [14]
  hind paws grip strength: 88.6 ± 18.5 % from the initial one
  mechanical allodynia pain threshold: 110.3±16.3 % from the initial one
  mechanical hyperalgesia: 67.38 ± 9.74 & % from the initial one
[2]; [15]
  hind paws grip strength: 68.2 ± 11.3 % from the initial one
  mechanical allodynia pain threshold: 75.7±3.6 % from the initial one
  mechanical hyperalgesia: 51.1 ± 5.4 & % from the initial one
[2]; [16]
  hind paws grip strength: 78.6 ± 12.1 % from the initial one
  mechanical allodynia pain threshold: 82.7±12.8 % from the initial one
  mechanical hyperalgesia: 77.5 ± 6.9 & % from the initial one
[2]; [17]
  hind paws grip strength: 67.7 ± 7.9 & % from the initial one
  mechanical allodynia pain threshold: 74.5±13.9 % from the initial one
  mechanical hyperalgesia: 56 ± 7.2 & % from the initial one
[2]; [18]
  hind paws grip strength: 68.23 ± 6.84 % from the initial one
  mechanical allodynia pain threshold: 78.9±6.8 % from the initial one
  mechanical hyperalgesia: 58.5 ± 7.1 & % from the initial one
[2]; [19]
  hind paws grip strength: 82.8 ± 9.5 % from the initial one
  mechanical allodynia pain threshold: 198.4±40.1 & % from the initial one
  mechanical hyperalgesia: 75 ± 6.1 & % from the initial one
[2]; [20]
  hind paws grip strength: 79.8 ± 4.3 % from the initial one
  mechanical allodynia pain threshold: 161.1±30.5 & % from the initial one
  mechanical hyperalgesia: 78.02 ± 9.37 % from the initial one
[2]; [21]
  hind paws grip strength: 62.8 ± 9.9 % from the initial one
  mechanical allodynia pain threshold: 113.9±9.7 & % from the initial one
  mechanical hyperalgesia: 53.8 ± 4.4 & % from the initial one
[2]; [22]
  hind paws grip strength: 70.3 ± 7.0 & % from the initial one
  mechanical allodynia pain threshold: 111.1±17.7 & % from the initial one
  mechanical hyperalgesia: 52.5 ± 3.3 & % from the initial one
[2]; [23]
  hind paws grip strength: 89.6 ± 8.7 % from the initial one
  mechanical allodynia pain threshold: 105.8±13 & % from the initial one
  mechanical hyperalgesia: 75.4 ± 6.4 % from the initial one
[2]; [24]
  hind paws grip strength: 76.56 ± 4.83 % from the initial one
  mechanical allodynia pain threshold: 98.1±5.7 & % from the initial one
  mechanical hyperalgesia: 64.7 ± 4.3 & % from the initial one
[2]; [25]
  hind paws grip strength: 86.3 ± 8.3 % from the initial one
  mechanical allodynia pain threshold: 106.7±12 & % from the initial one
  mechanical hyperalgesia: 53.5 ± 3.8 & % from the initial one
[2]; [26]
  hind paws grip strength: 82.3 ± 12.7 % from the initial one
  mechanical allodynia pain threshold: 99.2±5.5 & % from the initial one
  mechanical hyperalgesia: 61.04 ± 1.81 & % from the initial one
[2]; rat MIA, days 14, 21, 28
  hind paws grip strength: trend toward restoration of hind paws grip strength
[2]; rat MIA, prophylactic administration, 100 and 500 mg/kg
  Mechanical hyperalgesia pain threshold: statistically significant increase of pain thresholds for both doses from day 14
[2]; rat MIA, prophylactic treatment regimen
  mechanical allodynia pain threshold: on day 14 pain threshold was elevated in all measurements
[2]; rat MIA, therapeutic treatment regimen
  Mechanical hyperalgesia pain threshold: statistically significant improvement appeared only on day 28 for higher dose
[2]; rat MIA, treatment regimen
  mechanical allodynia pain threshold: statistically significant on day 28 and only in the higher dose
